Data as given in PubChem BioAssay (NCI).
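Method: 48-hour compound exposure of cells in 96-well plates, five concentrations, linear interpolation of endpoints. The concentration for 50% growth inhibition is given as GI50. TGI is the concentration that stops growth completely.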

What was measured:
Assay in all cases: growth of human tumour cells (NCI), 48 h
HCC-2998 colon = test system: HCC-2998 colon
SK-OV-3 ovarian = test system: SK-OV-3 ovarian
MDA-MB-231 breast = test system: MDA-MB-231 breast
EKVX NSCLC = test system: EKVX NSCLC
SK-MEL-28 melanoma = test system: SK-MEL-28 melanoma
HT29 colon = test system: HT29 colon
OVCAR-8 ovarian = test system: OVCAR-8 ovarian
U251 CNS = test system: U251 CNS
SNB-19 CNS = test system: SNB-19 CNS
DU-145 prostate = test system: DU-145 prostate

Row | SMILES | TGI (HCC-2998 colon) [µM] | TGI (SK-OV-3 ovarian) [µM] | TGI (MDA-MB-231 breast) [µM] | TGI (EKVX NSCLC) [µM] | TGI (SK-MEL-28 melanoma) [µM] | TGI (HT29 colon) [µM] | TGI (OVCAR-8 ovarian) [µM] | TGI (U251 CNS) [µM] | TGI (SNB-19 CNS) [µM] | GI50 (HCC-2998 colon) [µM] | GI50 (SK-OV-3 ovarian) [µM] | GI50 (MDA-MB-231 breast) [µM] | GI50 (DU-145 prostate) [µM] | TGI (DU-145 prostate) [µM] | GI50 (SK-MEL-28 melanoma) [µM] | GI50 (HT29 colon) [µM] | GI50 (OVCAR-8 ovarian) [µM] | GI50 (U251 CNS) [µM] | GI50 (SNB-19 CNS) [µM] | GI50 (EKVX NSCLC) [µM]
1 | NC(=S)N=Nc1c(O)[nH]c2c(Cl)cc(Cl)cc12 | > 100 | > 100 | 50.2 | > 100 | 29.6 | 42 | 40.8 | 40.9 | > 100 |  |  |  |  |  |  |  |  |  |  | 
2 | COc1cc(Cl)cc(-c2nn(-c3cccc(NC(=O)Nc4cccc(C(F)(F)F)c4)c3)cc2-c2ccncc2)c1 | 14 | 58.4 | 4.91 |  | 12.1 | 6.24 | 4.88 | 2.91 | 35.9 | 3.47 | 3.61 | 1.59 | 2.61 | > 100 | 2.53 | 1.51 | 1.12 | 0.879 | 2.77 | 
3 | O=C1CC(c2c(-c3ccccc3)[nH]c3ccccc23)C(=O)N1c1ccccc1 (stereo not given) | > 100 | > 100 |  | > 100 | > 100 | > 100 | > 100 | > 100 |  |  |  |  |  |  |  |  |  |  |  | 
4 | Cc1cc(N(CCC#N)CCC#N)ccc1N=Nc1cc(Cl)ccc1Cl | 32.9 | 29.9 |  | 26.5 | 21.1 | 13.1 |  | 33.5 | 35.9 |  |  |  |  |  |  |  |  |  |  | 
5 | CCOC(=O)C1C=C2O[C@@H]3OC4(CCCCC4)O[C@@H]3C2C2C(=O)CCC(=O)[C@@]12C(=O)OC (stereo not given in full) | > 100 | > 100 |  | > 100 | > 100 |  | > 100 | > 100 | > 100 |  |  |  |  |  |  |  |  |  |  | 
6 | C[C@]12CC[C@@H]3c4ccc(O)cc4CC[C@H]3[C@@H]1CC[C@@H]2NS(=O)(=O)c1ccc(Br)cc1 | 10.5 | 13.6 | 4.62 |  | 5.09 | 4.63 | 11.3 | 10.6 | 16.9 | 3.21 | 4.53 | 2.01 | 3.91 | 12.7 | 2.19 | 2.31 | 3.14 | 2.89 | 3.94 | 
7 | O=C1/C(=C/c2ccc3c(c2)OCCO3)CCC/C1=C\c1ccc2c(c1)OCCO2 | > 100 | > 100 |  | > 100 | 77.2 | 52 | 30.6 | 36.7 | > 100 |  |  |  |  |  |  |  |  |  |  | 
8 | COC(=O)c1cccc2c3ccccc3c3ccccc3c12 | > 100 | 75.7 |  | > 100 | > 100 | 83 | 58.2 | 73.6 | > 100 |  |  |  |  |  |  |  |  |  |  | 
9 | CC1(C)CCCC2(C)C3C(O)CC2(C)C(O)C31 (stereo not given) | > 100 | > 100 |  | > 100 | > 100 | > 100 | > 100 | > 100 | > 100 |  |  |  |  |  |  |  |  |  |  | 
10 | Cc1cccc(C)c1NC(=O)CCC/C(CC(=O)c1ccc(F)cc1)=N\NC(=O)C(=O)NN | > 100 | > 100 |  | > 100 | > 100 | > 100 | > 100 | > 100 | > 100 |  |  |  |  |  |  |  |  |  |  | 
11 | CNC(=O)c1cc(Oc2cccc3nc(NC(=O)Nc4cc(C(F)(F)F)cc(C(F)(F)F)c4)ccc23)ccn1 | > 100 | 10.1 |  | 86.3 | > 100 | > 100 | 26.8 | 6.27 | 38 | 15.5 | 2.99 |  | 6.29 | 65.9 | 4.67 | 3.51 | 5.09 | 2.47 | 5.31 | 4.46
12 | C1OC1CN1CCN(CC2CO2)CC1 (stereo not given) | > 100 | > 100 |  | > 100 | > 100 | > 100 | > 100 | > 100 | > 100 |  |  |  |  |  |  |  |  |  |  | 
13 | Cn1c(=O)nc2n(-c3ccc(Cl)cc3)c(-c3ccccc3)c(-c3ccccc3)nc-2c1=O | > 100 | > 100 |  | > 100 | 86.2 | > 100 | > 100 | > 100 | > 100 |  |  |  |  |  |  |  |  |  |  | 
14 | [N-]=[N+]=NCCCn1c2c(c3ccc([N+](=O)[O-])cc3c1=O)C(=O)c1cc3c(cc1-2)OCO3 |  | > 100 | 12.3 | 3.62 | > 100 | > 100 | 16.6 | 1.04 | > 100 |  | 0.7 | 0.828 | 0.0342 | 0.271 | 14.4 |  | < 0.0446 | < 0.0174 |  | 0.379
15 | CC1=CC(C)(c2c[nH]c3ccccc23)CC(C)(C)c2c1[nH]c1ccccc21 (stereo not given) | 30.4 | 61.8 |  | 39.8 | 30.1 | 28.6 | 29.8 | 32 | 74.7 |  |  |  |  |  |  |  |  |  |  | 
16 | CC(=O)Oc1ccc2c(c1)[C@@]1(C)CCCC(C)(C)[C@@H]1CC2 |  |  | 34.2 | 62.1 | 49.8 | > 100 | 41.6 | 35 | 39.4 |  |  | 17.8 |  |  | 19.3 | 31.7 | 18.8 | 19.9 | 19.6 | 26
17 | N#Cc1c(-c2ccccc2)cc(-c2ccc(N)cc2)[nH]c1=O | > 100 | > 100 |  | > 100 | > 100 | > 100 | > 100 | > 100 | > 100 |  |  |  |  |  |  |  |  |  |  | 
18 | CCc1cccc(C(C)C)c1NC(=O)CCl |  | > 100 |  | > 100 | > 100 | > 100 |  | > 100 | > 100 |  |  |  |  |  |  |  |  |  |  | 
19 | CC(C)(C)OC(=O)NCCCCn1c2c(c3ccccc3c1=O)C(=O)c1ccccc1-2 |  | > 100 | 53.1 | > 100 | > 100 | > 100 | 30.3 | 37.6 | 94.5 |  | 50.2 | 17.1 | 9.59 | > 100 | 38.2 | 32.4 | 8.75 | 15.9 | 25.1 | 61.5
20 | CC(C)(C)c1cc(C(=O)Nc2ccc(C(=O)NCCN)cc2)cc(C(C)(C)C)c1 | 3.18 | 20.7 |  | 14.5 | 3.67 | 5.19 | 10.9 | 3.88 | 16.6 | 1.69 | 5.31 |  | 3.46 | 12.4 | 1.79 | 2 | 3.39 | 1.91 | 3.65 | 2.04
